{
  "source": "patent US7858578B2",
  "about": "“Methods of inducing neuronal growth by a Fucose-α(1-2) galactose (fuc-α(1-2) gal) moiety and a lectin” (California Institute of Technology, priority 2004, dated 2010)",
  "key": {"[1]": {"tested_on": "Fucα(1-2)Gal epitope on glycoproteins", "experiment": "Western blot of neuronal lysates with anti-Fucα(1-2)Gal antibody A46-B/B10", "type": "cell-based, rat", "details": "30 mM, 4 days", "protocol": "In addition to cells plated on coverslips, hippocampal neurons were grown in 30 mm dishes and treated with or without 30 mM 2-dGal (25 μL in PBS with 475 μL supplemented Neurobasal medium). After 4 days, cells were harvested with 2.5% trypsin, lysed with 1% boiling SDS with protease inhibitors, and cell lysates probed by Western blotting using the anti-Fucα(1-2)Gal antibody A46-B/B10 (Karsten, U., et al., G. Br. J. Cancer, 58:176-181 (1988)). Protein concentrations of the neuronal lysates were determined using the BCA Protein Assay (Pierce). Equal amounts of total protein were resolved by 10% SDS-PAGE, and proteins were transferred to PVDF membrane (Millipore) in 20 mM Tris-Cl pH 8.6/120 mM glycine/20% methanol. Western blots were blocked for 1 h with 3% periodated BSA (Glass, W. F., et al., Anal. Biochem., 115:219-224 (1981)) and rinsed with TBST (50 mM Tris-Cl pH 7.4/150 mM NaCl/0.1% Tween-20). Blots were incubated with anti-Fucα(1-2)Gal antibody A46-B/B10 (0.5 μg/mL; gift from Dr. U. Karsten, Max-Delbruck Centre for Molecular Medicine, Berlin-Buch, Germany) in TBST overnight at 4° C. with constant rocking, then rinsed and washed twice for 10 min with TBST. Immunoreactivity was visualized by incubation with a horseradish peroxidase conjugated goat anti-mouse antibody (1:2500; Pierce) in TBST for 1 h followed by a rinse and four washes of 20 min with TBST. […]"}, "[2]": {"tested_on": "hippocampal neurons", "experiment": "Effects of deoxy-galactose sugars on neuronal morphology (anti-tau immunostaining)", "type": "cell-based, rat", "protocol": "Hippocampal neurons were plated on poly-DL-ornithine-coated glass coverslips as described above. After one day in culture, the medium was replaced with fresh medium, and the small molecules (2-dGal, 3-Deoxy-D-Galactose (3-dGal), or D-Galactose (Gal)) were added. A dose-response experiment was initially performed to determine the minimum concentration of 2-dGal needed to elicit an effect. Neurons were treated with varying concentrations of 2-dGal (1, 5, 10, 15, or 30 mM in 25 μL PBS with 475 μL of supplemented Neurobasal medium) for 2 days before immunostaining with anti-tau antibodies as described above.\nCells were treated as above under 4 different conditions: (1) no treatment for 2 days, (2) incubation with 15 mM 2-dGal for 2 days, (3) incubation with 15 mM 2-dGal for 2 days followed by incubation with 75 mM Gal for 2 days, or (4) incubation with 15 mM 3-dGal for 2 days. After adding the small molecules, cultures were incubated at 37° C., 5% CO2, then washed once with PBS, and immunostained with anti-tau antibody as described above."}, "[3]": {"tested_on": "hippocampal slices", "details": "cited from earlier work"}, "[4]": {"details": "animals; cited from earlier work"}, "[5]": {"tested_on": "synapsin I expressed in HeLa cells", "experiment": "Synapsin fucosylation and expression in synapsin I-transfected HeLa cells (immunoblotting)", "type": "cell-based", "details": "deoxy sugar for 24 h", "protocol": "(§1) FIG. 19. Inhibition of synapsin fucosylation using 2-dGal decreases the expression and half-life of synapsin I. (A) Effects of 2-dGal and 6-dGal on synapsin fucosylation (left panel) and synapsin expression (right panel) levels. Synapsin I-transfected HeLa cells were treated with the indicated amounts of the deoxy sugar for 24 h. Fucosylation and synapsin expression levels were measured by immunoblotting with antibody A46-B/B10 and an anti-synapsin antibody, respectively. […] Synapsin I-transfected HeLa cells were treated with 2-dGal or a vehicle control (PBS), pulse labeled with ^35S-L-cysteine and ^35S-L-methionine as described in Materials and Methods, and chased for the indicated times. ^35S-labeled synapsin levels were measured by autoradiography. (C) Inhibition of the calcium-activated protease calpain using a calpain inhibitor peptide or calpeptin protects synapsin from degradation. […] Synapsin I-transfected HeLa cells were treated with the indicated inhibitors or vehicle control (DMSO, PBS or MeOH) in the presence or absence of 2-dGal for 15 h. Following lysis, the cell extracts were analyzed for synapsin expression levels by immunoblotting.\nThe effects of 2-dGal on synapsin I expressed in HeLa cells were next investigated. Cell lysates containing equivalent amounts of transfected protein were resolved by SDS-PAGE, and the fucosylation and protein levels of synapsin were measured by immunoblotting, using methods described above."}, "[6]": {"tested_on": "synapsin I-transfected HeLa cells", "experiment": "Synapsin degradation with inhibitors of protein degradation with or without 2-dGal", "type": "cell-based", "details": "2-dGal alone, 15 h", "protocol": "as §1\nTo investigate the molecular mechanisms responsible for synapsin degradation, cells expressing synapsin were treated with various inhibitors of protein degradation in the presence or absence of 2-dGal. Specifically, the lysosomal inhibitors bafilomycin A1 and ammonium chloride, the proteasome inhibitor MG132, and two inhibitors of the calcium-dependent protease calpain, were used."}, "[7]": {"tested_on": "E18 cortical neurons", "experiment": "Expression of synaptic proteins in cultured neurons (Western blotting)", "type": "cell-based", "details": "15 mM for 3 days, neurons 7 DIV", "protocol": "(§2) FIG. 20. […] (A) E18 cortical neurons cultured for 7 DIV were treated with 15 mM of 2-dGal or 6-dGal for 3 days. Protein lysates were analyzed by Western blotting using antibodies selective for the indicated proteins. A significant reduction in the expression of synapsin Ib was observed, while other synapse-associated proteins were unaffected by the 2-dGal treatment. (B) Neurite retraction caused by 2-dGal is reduced in synapsin-deficient mice. Neurons from synapsin I-deficient or wild-type mice were cultured for 2 days, treated with 2-dGal for 3 days, and analyzed for mean neurite length.\nTo examine the effects of 2-dGal on synapsin fucosylation in neurons, neurons were cultured for 7 DIV to allow for adequate expression of synapsin and subsequently treated with 2-dGal or 6-dGal for comparison. Cells were lysed and immunoblotted as described above. […] The expression of other synaptic proteins, including NSF, the synaptic vesicle protein synaptotagmin, the presynaptic plasma membrane protein syntaxin, and the postsynaptic proteins PSD-95, the AMPA receptor GluR1 subunit and spinophilin, was unchanged by the 2-dGal treatment."}, "[8]": {"tested_on": "neurons from synapsin I-deficient or wild-type mice", "experiment": "2-dGal-mediated neurite retraction in neurons from synapsin I-deficient or wild-type mice", "type": "cell-based", "details": "cultured 2 days, 2-dGal for 3 days; n=50; p<0.003", "protocol": "as §2\nAlthough synapsin I represents the major fucosylated protein in mature neuronal cultures, other proteins are also covalently modified by Fucα(1-2)Gal during early developmental stages (See FIG. 9A). The relative contribution of synapsin to the striking effects of 2-dGal on neuronal morphology were therefore investigated. Neurons were cultured from synapsin I-deficient (Chin, L. S., et al., Proc. Natl. Acad. Sci. USA 92:9230-9234 (1995); Drs. H. T Kao and P. Greengard, The Rockefeller University, New York, N.Y.) or wild-type mice for 2 days, treated with 2-dGal for 3 days, immunostained for tubulin, and examined by confocal fluorescence microscopy. […]"}},
  "note": "“Also recorded” adds a separate entry of the source.",
  "data": [
    {"smiles": "O=CC[C@@H](O)[C@@H](O)[C@H](O)CO", "note": "[Compound 2-dGal, 2-Deoxy-D-Galactose]", "values": [
      {"measurement": "level of Fucα(1-2)Gal epitope on glycoproteins", "setting": "[1]", "value": "disrupted synthesis of the Fucα(1-2)Gal epitope on glycoproteins; also recorded: significantly reduced levels of the Fucα(1-2)Gal epitope; also recorded: diminishes expression of the Fucα(1-2)Gal epitope"},
      {"measurement": "effect on neurite outgrowth", "setting": "[2]; 15 mM for 2 days", "value": "strong effect on neurite outgrowth; also recorded: severely stunted neurites and failed to form synapses; also recorded: inhibits neuronal growth"},
      {"measurement": "neurites with increasing concentration", "setting": "[2]; 1, 5, 10, 15 or 30 mM for 2 days", "value": "gradual decrease in neurites"},
      {"measurement": "cellular toxicity (trypan blue staining, adherence, morphology)", "setting": "[2]; concentrations up to 30 mM", "value": "No cellular toxicity"},
      {"measurement": "effect on LTP", "setting": "[3]", "value": "interferes with the maintenance of long-term potentiation"},
      {"measurement": "effect on memory", "setting": "[4]", "value": "reversible amnesia"},
      {"measurement": "fucosylation level of synapsin", "setting": "[5]", "value": "dramatic effect on the fucosylation level of synapsin"},
      {"measurement": "level of synapsin protein", "setting": "[5]", "value": "significant decrease in the level of synapsin protein"},
      {"measurement": "levels of synapsin expression", "setting": "[6]", "value": "significantly reduced the levels of synapsin expression"},
      {"measurement": "expression of other synaptic proteins (NSF, synaptotagmin, syntaxin, PSD-95, GluR1, spinophilin)", "setting": "[7]", "value": "unchanged"},
      {"measurement": "expression of synapsin I", "setting": "[7]", "value": "dramatically reduced the expression of synapsin I; also recorded: reduces synapsin I expression levels"},
      {"measurement": "increase of mean neurite length, synapsin knockout compared to wild-type neurons", "setting": "[8]", "value": "17.4±5.2", "unit": "%"}
    ]}
  ]
}
